PMC6342301, “Potent, multi-target serine protease inhibition achieved by a simplified β-sheet motif” (PLoS ONE, 2019)
Like-named read-outs stand apart in the source and are kept apart here. Bridge positions count the residues as written; N and C are the ends. Peptide text beside a SMILES is read from it.

Columns and labels:
[1] = biological target: T1, KLK7 (Homo sapiens, UniProt P49862); assay: Competitive inhibition assay against KLK7 (KHLY-pNA substrate); type: biochemical; conditions: for Ki: KLK7, substrate KHLY-pNA, Morrison equation
T1 construct: made in house; host or cells: Pichia pastoris strain X-33
T1 sequence (P49862 30-253): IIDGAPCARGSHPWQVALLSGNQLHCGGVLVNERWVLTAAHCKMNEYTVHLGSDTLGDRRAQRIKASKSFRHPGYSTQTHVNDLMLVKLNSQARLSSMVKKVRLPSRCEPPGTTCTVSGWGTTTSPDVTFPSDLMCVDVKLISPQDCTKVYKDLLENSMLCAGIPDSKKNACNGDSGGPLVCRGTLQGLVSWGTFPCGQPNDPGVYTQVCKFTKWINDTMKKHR
From the text: KLK7 was produced as a zymogen in the yeast Pichia pastoris strain X-33 previously developed and optimised by Dr Maria Brattsand [29]. Expressed proteins were purified using cation exchange chromatography on UnoSphere S (Biorad) and activated by treatment with enterokinase (10 units per milligram purified zymogen; Thermo Fisher Scientific) before a final polishing step to remove enterokinase, again using cation exchange chromatography. The active site concentration of purified KLK7 was determined using the serpin α1- proteinase inhibitor (A1PI) which binds to KLK7 with 1:1 stoichiometry. Briefly, a fixed amount of KLK7 was pre-incubated with a range of inhibitor concentrations at room temperature for 20 min before adding a constant concentration of substrate KHLY-pNA. The residual KLK7 activities were measured as the increase of absorbance at 405 nm for 10 min (ΔOD405/min) and plotted against respective inhibitor concentrations. The active site concentration was determined by linear regression to find the concentration of inhibitor required for complete KLK7 inhibition (ΔOD405/min drops to zero), which is equal to the concentration of KLK7 active site.
Inhibitory property of SFTI inhibitors was assessed by determining the inhibition constant (Ki) in competitive inhibition assays against a range of proteases as described before. Serial dilutions of the inhibitor were pre-incubated with a fix concentration of protease in assay buffer (0.1 M Tris pH 8.0, 0.1 M NaCl and 0.05% Triton X-100) at room temperature for 10 min. Assays were initiated by addition of respective peptide-pNA substrates. Absorbance changes at 405 nm were monitored using a micro plate spectrophotometer (Bio-rad Benchmark Plus) over 5 min. Inhibition constants were calculated in GraphPad Prism 5.01 (La Jolla California, USA) by non-linear regression using the Morrison equation for tight binding inhibitors.

[2] = biological target: T1, KLK7; parameters: method as in PMID 26393374; conditions: substrate KHLY-pNA; cited from earlier work
[3] = biological target: Trypsin; conditions: substrate Ac-YASR-pNA; cited from earlier work
[4] = biological target: KLK5; conditions: substrate Ac-YRSR-pNA; cited from earlier work
[5] = biological target: KLK14; conditions: substrate Ac-YANR-pNA; cited from earlier work
[6] = biological target: T1, KLK7; conditions: cited from earlier work

Question: For `CC[C@H](C)[C@@H]1NC(=O)[C@@H]2CCCN2C(=O)[C@@H]2CCCN2C(=O)[C@H]([C@@H](C)CC)NC(=O)[C@H](CO)NC(=O)[C@H](CCCNC(=N)N)NC(=O)[C@H]([C@@H](C)O)NC(=O)[C@@H]2CSSC[C@H](NC1=O)C(=O)N[C@@H](Cc1ccccc1)C(=O)N1CCC[C@H]1C(=O)N[C@@H](CC(=O)O)C(=O)NCC(=O)N[C@@H](CCCNC(=N)N)C(=O)N2` [SFTI-RCTR] (cyclo(CFPDGRCTRSIPPI); disulfide 1-7), which Ki [1] is on record?
Answer: 220 ± 6 nM

Question: With `CC[C@H](C)[C@@H]1NC(=O)[C@@H]2CCCN2C(=O)[C@@H]2CCCN2C(=O)[C@H]([C@@H](C)CC)NC(=O)[C@H](CO)NC(=O)[C@H](CCCCN)NC(=O)[C@H]([C@@H](C)O)NC(=O)[C@@H]2CSSC[C@H](NC1=O)C(=O)N[C@@H](Cc1ccccc1)C(=O)N1CCC[C@H]1C(=O)N[C@@H](CC(=O)O)C(=O)NCC(=O)N[C@@H](CCCNC(=N)N)C(=O)N2` [SFTI-1, Sunflower trypsin inhibitor-1, reference compound] as the molecule, how does the Ki [1] read?
Answer: 4800 ± 200 nM

Question: For “SFTI-TCTR: SFTI variant GTCTRSIPPICNPN with four mutations R2T (P4), K5R (P1), F12N, D14N in the cyclic backbone (head-to-tail cyclic backbone)”, which “fold increased inhibitory potency against KLK7 compared to SFTI-1” value ([1]; ratio of Ki values, relative to SFTI-1) is on record?
Answer: 286 fold

Question: And the “fold increase in KLK7 inhibitory potency compared to SFTI-RCTR” value ([1]; ratio of Ki values, relative to SFTI-RCTR)?
Answer: 13 fold

Question: And the Ki [2]?
Answer: 17 ± 0.4 nM

Question: And the Ki [3]?
Answer: 0.7 ± 0.07 nM

Question: And the Ki [4]?
Answer: 2 ± 0.1 nM

Question: And the Ki [5]?
Answer: 0.4 ± 0.02 nM

B1: recombinant LEKTI fragment comprising domains 8–11: recombinant LEKTI fragment comprising domains 8–11 (protein)
chain: EAAKEICSEFRDQVRNGTLICTREHNPVRGPDGKMHGNKCAMCASVFKLEEEEKKNDKEEKGKVEAEKVKREAVQELCSEYRHYVRNGRLPCTRENDPIEGLDGKIHGNTCSMCEAFFQQEAKEKERAEPRAKVKREAEKETCDEFRRLLQNGKLFCTRENDPVRGPDGKTHGNKCAMCKAVFQKENEERKRKEEEDQRNAAGHGSSGGGGGNTQDECAEYREQMKNGRLSCTRESDPVRDADGKSYNNQCTMCKAKLEREAERKNEY
modifications: intradomain disulfides; check residue is from a known polymorphic site (R711Q), not from the pape
Question: Which Ki [6] does the source give for B1 here?
Answer: 34.8 nM
